Measurements taken from US20190136321A1, “USE OF TRANSLATIONAL PROFILING TO IDENTIFY TARGET MOLECULES FOR THERAPEUTIC TREATMENT” (The Regents of The University of California, priority 2013, published 2019).

What was measured:
[1] = system: PC3 cells; assay: Ribosome profiling and RNA-seq of PC3 cells (translational efficiency, mRNA abundance); format: cell-based, human;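 further: mRNA is RNA-seq average read density per codon over the coding sequence, translational efficiency is ribosome footprint over RNA-seq density, scaled so the median gene equals 1.0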
Procedure: Given the critical role for mTOR in prostate cancer, PC3 human prostate cancer cells, in which mTOR is constitutively hyperactivated, were used to delineate translationally controlled gene expression networks upon complete or partial mTOR inhibition. Ribosome profiling was optimized to assess quantitatively ribosome occupancy genome-wide in cancer cells.
Cells were subsequently treated with cycloheximide (100 μg ml^−1) and detergent lysis was performed in the dish. The lysate was treated with DNase and clarified, and a sample was taken for RNA-seq analysis. Lysates were subjected to ribosome footprinting by nuclease treatment. Ribosome-protected fragments were purified, and deep sequencing libraries were generated from these fragments, as well as from poly(A) mRNA purified from non-nuclease-treated lysates.
Ribosome footprint and RNA-seq sequencing reads were aligned against a library of transcripts from the UCSC Known Genes database GRCh37/hg19. The first 25 nucleotides of each read were aligned using Bowtie and this initial alignment was then extended to encompass the full fragment-derived portion of the sequencing read while excluding the linker sequence. Read density profiles were then constructed for the canonical transcript of each gene, using only reads with 0 or 1 total mismatches between the read sequence and the reference sequence, comprised of the transcript fragment followed by the linker sequence. Footprint reads were assigned to an A site nucleotide at position +15 to +17 of the alignment, based on the total fragment length; mRNA reads were assigned to the first nucleotide of the alignment. The average read density per codon was then computed for the coding sequence of each transcript, excluding the first 15 and last 5 codons, which can display atypical ribosome accumulation.
Average read density was used as a measure of mRNA abundance (RNA-seq reads) and of protein synthesis (ribosome profiling reads). For most analyses, genes were filtered to require at least 256 reads in the relevant RNA-seq samples. Translational efficiency was computed as the ratio of ribosome footprint read density to RNA-seq read density, scaled to normalize the translational efficiency of the median gene to 1.0 after excluding regulated genes (log2 fold-change ±1.5 after normalizing for the all-gene median). Changes in protein synthesis, mRNA abundance and translational efficiency were similarly computed as the ratio of read densities between different samples, normalized to give the median gene a ratio of 1.0. This normalization corrects for differences in the absolute number of sequencing reads obtained for different libraries.

[2] = system: 4EBP1, p70S6K1/2 and AKT; assay: Western blot of downstream mTOR effectors in PC3 cells; format: cell-based, human; conditions: 2.5 μM PP242, 3 hrs
Procedure: Cells were washed with PBS and lysed in 1× cell lysis buffer (Cell Signaling) for 15 min at 4° C. Lysates were sonicated briefly, clarified by centrifugation for 15 min at 14, 000 rpm, and supernatants were then collected. Protein concentration in the soluble fraction was determined by BCA protein assay (Thermo Scientific). A 4-20% Bis-Tris gradient gel (Invitrogen) was used to resolve 20 μg of protein and transferred to nitrocellulose membrane. The resulting membranes were blocked for 1 hr at room temperature with Odyssey blocking solution (LI-COR) and then incubated with primary antibodies at 4° C. overnight. The following day, the blots were washed 3 times, 10 min each in TBST, and incubated with IR-conjugated goat anti-rabbit IgG secondary antibody (IRDye 800 CW at 1:20,000; LI-COR) for 1 hour at room temperature. The blots were then washed, scanned, and specific proteins were detected using the LI-COR Odyssey infrared imager. […] Actin was used as a loading amount control.

[3] = system: SW620 cells; assay: Western blot of phosphorylation of protein translation components in SW620 cells; format: cell-based, human; conditions: PP242 10 μM
Procedure: SW620 cells (ATCC, passage 12) were seeded at about 75% confluence 24 hrs prior to drug treatment. […] About 6×10^6 cells/10 cm plate and about 1×10^6 cells/well of a 6-well plate were harvested for ribosome profiling and Western blot analysis, respectively, following drug treatment.
Cells were washed with PBS and lysed in 1× cell lysis buffer (Cell Signaling) for 15 min at 4° C. Lysates were sonicated briefly, clarified by centrifugation for 15 min at 14, 000 rpm, and supernatants were then collected. Protein concentration in the soluble fraction was determined by BCA protein assay (Thermo Scientific). A 4-20% Bis-Tris gradient gel (Invitrogen) was used to resolve 20 μg of protein and transferred to nitrocellulose membrane. The resulting membranes were blocked for 1 hr at room temperature with Odyssey blocking solution (LI-COR) and then incubated with primary antibodies at 4° C. overnight. The following day, the blots were washed 3 times, 10 min each in TBST, and incubated with IR-conjugated goat anti-rabbit IgG secondary antibody (IRDye 800 CW at 1:20,000; LI-COR) for 1 hour at room temperature. The blots were then washed, scanned, and specific proteins were detected using the LI-COR Odyssey infrared imager. The following antibodies from Cell Signaling were used at 1:1000 dilution: anti-phospho-eIF4E(Ser209)(#9741), anti-phospho-rpS6(Ser235/236)(#4858), anti-phospho-ERK1/2(Thr202/Tyr204)(#4370), anti-phospho-p70S6K(Thr421/Ser424)(#9204), anti-phospho-p90RSK(Thr359/Ser363)(#9344), anti-phospho-4EBP(Ser65), anti-phospho-pAKT(Ser473), anti-phospho-eIF4E(Ser209), and anti-β-actin (#4970). Actin was used as a loading amount control.

[4] = system: Normal human lung fibroblasts; assay: Ribosomal profiling of TGF-β treated fibroblasts; format: cell-based
Procedure: (§1) On Day 0, fibroblasts were seeded and cultured under normal conditions overnight. On Day 1, media was removed, cells were washed with PBS and then incubated for 48 hrs in serum free media (DMEM supplemented with penicillin, streptomycin, and glutamax). On Day 3, media was removed and cells were cultured for 24 hrs with fresh serum free media ±PAMi and ±10 ng/ml TGF-β. After this 24 hour incubation, about 6×10^6 cells/10 cm plate and about 1×10^6 cells/well of a 6-well plate were used for ribosomal profiling and western blot analysis, respectively.
Cells were washed with cold PBS supplemented with cycloheximide and lysed with 1× mammalian lysis buffer for 10 min on ice. Lysates were clarified by centrifugation for 10 min at 14,000 rpm and supernatants were collected. Cell lysates were processed to generate the ribosomal protected fragments and total mRNA according to the instructions included with the ARTseq Ribosome Profiling Kit. Sequencing of total RNA (RNA) and of ribosome-protected fragments of RNA (RPF) was carried out with standard Illumina rna seq methodology.
RNA-seq reads were processed with tools from the FASTX-Toolkit (fastq_quality_trimmer, fastx_clipper and fastx_trimmer). Unprocessed and processed reads were evaluated for a variety of quality measures using FastQC. Processed reads were mapped to the human genome using Tophat. Gene-by-gene assessment of the number of fragments strictly and uniquely mapping to the coding region of each gene was conducted using HTSeq-count, a component of the HTSeq package. Differential analyses of the transforming effect of TGF-β on fibroblasts and effect of PAMi treatment on this transformation were carried out with the software packages DESeq for transcription (RNA counts) and translational rate (RPF counts) and BABEL for translational efficiency based upon ribosomal occupancy as a function of RNA level (RNA and RPF counts). Genes with low counts in either RPF or RNA were excluded from differential analyses. Pathway and network analyses of differential data was conducted using Ingenuity Pathway Analysis (IPA).

[5] = system: Normal human lung fibroblasts; assay: Procollagen Type 1 C-Peptide (PIP EIA) in TGF-β treated fibroblasts; format: cell-based; conditions: 10 ng/ml TGF-β, 24 hours
Procedure: Normal human lung fibroblasts (Lonza #CC-2512) were cultured in DMEM+10% FBS supplemented with Penicillin, Streptomycin and Glutamax (Invitrogen) at 37° C. in a humidified incubator with 5% CO2. Cell passage numbers 2 through 5 were used for all experiments.
as §1
Culture Media was collected, centrifuged to pellet cellular debris, and stored at −80° C. Procollagen Type 1 C-Peptide (PIPC) was quantified using the (PIP) EIA kit (Clontech Cat# MK101) according to manufacturer's instructions.

## CC(C)n1nc(-c2cc3cc(O)ccc3[nH]2)c2c(N)ncnc21 [PP242]
[1]; PP242 2.5 μM, 3-hour treatment
  TrlEff, ACD: −1.02
  TrlEff, C17orf28: −0.20
  TrlEff, CCNA1: 0.66
  TrlEff, DDX51: −0.51
  TrlEff, DGCR2: 0.02
  TrlEff, EEF1A1: −3.53
  TrlEff, GTPBP3: −0.83
  TrlEff, MAPK6: −0.29
  TrlEff, MAPKAPK2: 0.92
  TrlEff, NFATC21P: 0.35
  TrlEff, NR2F1: −0.09
  TrlEff, PRKD3: 0.68
  TrlEff, RBPJ: −0.03
  TrlEff, RPL28: −3.48
  TrlEff, RPL39: −2.53
  TrlEff, RPS20: −2.78
  TrlEff, RPS27: −3.35
  TrlEff, SDCCAG10: 0.23
  TrlEff, UBTD2: 0.27
  TrlEff, UCHL5: 0.40
  TrlEff, VHL: 0.52
  mRNA, ACD: 0.20
  mRNA, ARID5B: 1.93 log^2 fold change
  mRNA, BCL6: 1.59 log^2 fold change
  mRNA, BRIX1: −1.51 log^2 fold change
  mRNA, C17orf28: 0.21
  mRNA, CCNA1: −0.33
  mRNA, CTGF: 1.80 log^2 fold change
  mRNA, CYR61: 1.47 log^2 fold change
  mRNA, DDX51: 0.17
  mRNA, DGCR2: 0.05
  mRNA, EEF1A1: 0.29
  mRNA, FGFBP1: −1.75 log^2 fold change
  mRNA, FOXA1: 1.45 log^2 fold change
  mRNA, GDF15: 3.02 log^2 fold change
  mRNA, GTPBP3: 0.15
  mRNA, HBP1: 1.88 log^2 fold change
  mRNA, KLF6: 1.75 log^2 fold change
  mRNA, MAPK6: 0.10
  mRNA, MAPKAPK2: −0.22
  mRNA, MT2A: 1.47 log^2 fold change
  mRNA, NFATC21P: 0.08
  mRNA, NR2F1: 0.87
  mRNA, PLAU: 2.04 log^2 fold change
  mRNA, PRKD3: −0.46
  mRNA, RBPJ: 0.17
  mRNA, RND3: 1.78 log^2 fold change
  mRNA, RPL28: 0.55
  mRNA, RPL39: −0.42
  mRNA, RPS20: −0.10
  mRNA, RPS27: 0.06
  mRNA, SDCCAG10: −0.37
  mRNA, SOX4: 1.51 log^2 fold change
  mRNA, UBTD2: 0.25
  mRNA, UCHL5: −0.51
  mRNA, VHL: 0.43
[1]; gene ACTG1
  TrlEff: −1.40
  mRNA: 0.28
[1]; gene AGRN
  mRNA: 0.50
[1]; gene ALKBH7
  mRNA: 0.51
[1]; gene AP2A1
  mRNA: 0.42
[1]; gene ARD1A
  mRNA: 0.03
[1]; gene ATP5G2
  mRNA: 0.17
[1]; gene C21orf66
  mRNA: −0.31
[1]; gene CCNI
  mRNA: 0.24
[1]; gene CD44
  mRNA: 0.43
[1]; gene CIRBP
  mRNA: 0.54
[1]; gene CLPTM1
  mRNA: 0.41
[1]; gene COL6A2
  mRNA: 0.57
[1]; gene CRTAP
  TrlEff: −2.50
  mRNA: 0.33
[1]; gene ECSIT
  mRNA: 0.26
[1]; gene EEF1A2
  mRNA: 0.40
[1]; gene EEF1B2
  TrlEff: −1.70
[1]; gene EEF1D
  mRNA: 0.35
[1]; gene EEF1G
  mRNA: 0.15
[1]; gene EEF2
  TrlEff: −3.60
[1]; gene EIF3H
  mRNA: 0.09
[1]; gene EIF3L
  mRNA: 0.21
[1]; gene EIF4B
  mRNA: 0.61
[1]; gene EVPL
  TrlEff: −0.79
  mRNA: 0.38
[1]; gene FAM83H
  mRNA: 0.33
[1]; gene FAM128B
  mRNA: 0.43
[1]; gene FASN
  mRNA: 0.30
[1]; gene GAPDH
  TrlEff: −1.90
[1]; gene GLTSCR2
  mRNA: 0.70
[1]; gene GNB2L1
  mRNA: 0.27
[1]; gene HNRNPA1
  mRNA: 0.27
[1]; gene HSPA8
  mRNA: −0.40
[1]; gene IMPDH2
  mRNA: 0.21
[1]; gene LAMA5
  TrlEff: −0.94
  mRNA: 0.40
[1]; gene LMF2
  mRNA: 0.62
[1]; gene MTA1
  mRNA: 0.21
[1]; gene NCLN
  TrlEff: −0.76
  mRNA: 0.29
[1]; gene PABPC1
  mRNA: 0.16
[1]; gene PABPC4
  mRNA: 0.40
[1]; gene PACS1
  mRNA: 0.45
[1]; gene PFDN5
  mRNA: 0.04
[1]; gene PGLS
  mRNA: 0.21
[1]; gene PGM1
  mRNA: 0.23
[1]; gene PNKP
  TrlEff: −0.79
  mRNA: 0.33
[1]; gene PTGES2
  TrlEff: −0.65
  mRNA: 0.17
[1]; gene RABGGTB
  mRNA: 0.20
[1]; gene RPL3
  mRNA: 0.22
[1]; gene RPL4
  TrlEff: −1.50
  mRNA: 0.10
[1]; gene RPL7
  mRNA: 0.01
[1]; gene RPL7A
  TrlEff: −2.30
  mRNA: 0.15
[1]; gene RPL9
  mRNA: −0.08
[1]; gene RPL10
  mRNA: 0.25
[1]; gene RPL10A
  mRNA: 0.14
[1]; gene RPL11
  mRNA: 0.14
[1]; gene RPL12
  mRNA: 0.12
[1]; gene RPL13
  mRNA: 0.26
[1]; gene RPL13A
  TrlEff: −3.10
  mRNA: 0.30
[1]; gene RPL15
  TrlEff: −1.20
  mRNA: 0.19
[1]; gene RPL17
  TrlEff: −1.80
[1]; gene RPL18A
  mRNA: 0.23
[1]; gene RPL19
  mRNA: 0.11
[1]; gene RPL21
  mRNA: −0.04
[1]; gene RPL22
  mRNA: 0.00
[1]; gene RPL22L1
  TrlEff: −1.90
[1]; gene RPL24
  mRNA: 0.00
[1]; gene RPL26
  TrlEff: −2.00
  mRNA: 0.02
[1]; gene RPL27
  mRNA: −0.13
[1]; gene RPL27A
  mRNA: 0.07
[1]; gene RPL28
  mRNA: 0.22
[1]; gene RPL31
  TrlEff: −2.10
  mRNA: 0.05
[1]; gene RPL32
  mRNA: 0.11
[1]; gene RPL34
  mRNA: 0.04
[1]; gene RPL36A
  mRNA: −0.01
[1]; gene RPL37A
  mRNA: 0.01
[1]; gene RPL39
  mRNA: −0.15
[1]; gene RPL41
  mRNA: −0.01
[1]; gene RPLP0
  mRNA: 0.12
[1]; gene RPLP1
  mRNA: 0.12
[1]; gene RPLP2
  TrlEff: −2.10
  mRNA: 0.14
[1]; gene RPS2
  mRNA: 0.20
[1]; gene RPS3
  mRNA: 0.24
[1]; gene RPS3A
  mRNA: −0.06
[1]; gene RPS4X
  mRNA: 0.12
[1]; gene RPS5
  mRNA: 0.23
[1]; gene RPS6
  mRNA: −0.02
[1]; gene RPS7
  TrlEff: -1151
  mRNA: −0.04
[1]; gene RPS9
  mRNA: 0.34
[1]; gene RPS12
  TrlEff: −3.00
  mRNA: 0.04
[1]; gene RPS13
  mRNA: −0.08
[1]; gene RPS14
  TrlEff: −1.50
  mRNA: 0.16
[1]; gene RPS15
  mRNA: 0.21
[1]; gene RPS15A
  mRNA: 0.07
[1]; gene RPS19
  mRNA: 0.23
[1]; gene RPS20
  mRNA: −0.01
[1]; gene RPS21
  mRNA: 0.09
[1]; gene RPS25
  mRNA: −0.04
[1]; gene RPS27
  mRNA: 0.07
[1]; gene RPS27A
  mRNA: −0.04
[1]; gene RPS28
  mRNA: 0.28
[1]; gene RPS29
  mRNA: 0.11
[1]; gene SLC19A1
  mRNA: 0.10
[1]; gene SLC25A5
  TrlEff: −1.80
[1]; gene TKT
  mRNA: 0.33
[1]; gene TSC2
  mRNA: 0.21
[1]; gene UBA52
  mRNA: 0.18
[1]; gene VIM
  mRNA: 0.67
[1]; gene YB1
  TrlEff: −2.30
  mRNA: 0.24
[2]
  phosphorylation of S6K, S6 and 4EBP1: substantially inhibited
[3]
  phosphorylation of 4EBP: some phosphorylation of 4EBP was observed

## TGF-β
[4]; fibroblasts treated with TGF-β, 141 pathway genes
  genes in the pathway having an increase in translational efficiency: 118 of the 141
[4]; fibroblasts upon TGF-β treatment
  mean translational efficiency of the 141 pathway-associated genes: −1.05 log 2 relative to population mean
[4]; fibroblasts, TGF-β
  mean increase in translational efficiency, all genes in the pathway (printed: these 12 genes): 0.65 log 2
  mean increase in translational efficiency, subset of 12 genes: 1.3 log 2
[5]
  increase in procollagen production: approximately 7 fold
